Results reported in patent US20240158446A1, “CYCLIC COMPOUND HAVING SELECTIVE INHIBITORY ACTION ON KRAS OVER HRAS AND NRAS” (CHUGAI SEIYAKU KABUSHIKI KAISHA, priority 2021, published 2024).
*1 amine or outer side, *2 acyl side, *3 side chain or, on linkers, in order; H or OH if unused. Where a SMILES comes first, the peptide text is derived from it. Bridges are numbered along the chain shown (N, C = ends). [ ]: non-standard residue; d: D form. The star is where a group is joined. hPhe(3-Cl-4-CF3) = N[C@@H](CCc1ccc(C(F)(F)F)c(Cl)c1)C(=O)O; X52 = CCCN([C@@H](Cc1ccc(OC(F)(F)F)cc1)C(=O)[*:2])[*:1]; NPrPhe(4-CF3) = CCCN[C@@H](Cc1ccc(C(F)(F)F)cc1)C(=O)O; X15 = Cc1ccc(C[C@@H](C(=O)[*:2])N(CCC(C)C)[*:1])cc1; X42 = Cc1ccc(C[C@@H](C(=O)[*:2])N(CC2CCC2)[*:1])cc1; X10 = C=CCN([C@@H](Cc1ccc(C)cc1)C(=O)[*:2])[*:1]; X53 = C#CCN([C@@H](Cc1ccc(C)cc1)C(=O)[*:2])[*:1]; NMeGly(cPent) = CN[C@H](C(=O)O)C1CCCC1; Aze(3S-Me) = C[C@H]1CN[C@@H]1C(=O)O; Gly(cPent) = N[C@H](C(=O)O)C1CCCC1; cisHyp = O=C(O)[C@@H]1C[C@H](O)CN1; Hyp = O=C(O)[C@@H]1C[C@@H](O)CN1; NMeD = CN[C@@H](CC(=O)O)C(=O)O; NMeL = CN[C@@H](CC(C)C)C(=O)O; Morpholide = C1CN(*)CCO1; NMeA = CN[C@@H](C)C(=O)O; Ac5c = NC1(C(=O)O)CCCC1; Aze = O=C(O)[C@@H]1CCN1; Ethyl(2,2-F2) = FC(F)C*; Ac4c = NC1(C(=O)O)CCC1; Ac3c = NC1(C(=O)O)CC1; Sar = CNCC(=O)O

What was measured:
[1] = target: GDP-bound KRAS wild-type protein (Homo sapiens, UniProt P01116); test: Binding to KRAS by surface plasmon resonance (SPR), Single Cycle Kinetics; conditions: SPR Single Cycle Kinetics, GDP-bound KRAS wild-type protein, 1:1 binding model; read-out: KRAS KD
[2] = target: GDP-bound HRAS wild-type protein (Homo sapiens, UniProt P01112); test: Binding to HRAS by surface plasmon resonance (SPR), Single Cycle Kinetics; conditions: SPR, GDP-bound HRAS wild-type protein vs GDP-bound KRAS wild-type protein
[3] = target: GDP-bound NRAS wild-type protein (Homo sapiens, UniProt P01111); test: Binding to NRAS by surface plasmon resonance (SPR), Single Cycle Kinetics; conditions: SPR, GDP-bound NRAS wild-type protein vs GDP-bound KRAS wild-type protein
GDP-bound NRAS wild-type protein, sequence (P01111 whole entry): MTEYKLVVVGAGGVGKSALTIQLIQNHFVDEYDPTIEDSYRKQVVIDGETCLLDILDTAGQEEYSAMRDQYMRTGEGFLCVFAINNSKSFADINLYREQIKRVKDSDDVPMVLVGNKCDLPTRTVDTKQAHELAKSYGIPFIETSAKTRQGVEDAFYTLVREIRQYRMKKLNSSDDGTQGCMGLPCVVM

GDP-bound KRAS wild-type protein, sequence (P01116 whole entry): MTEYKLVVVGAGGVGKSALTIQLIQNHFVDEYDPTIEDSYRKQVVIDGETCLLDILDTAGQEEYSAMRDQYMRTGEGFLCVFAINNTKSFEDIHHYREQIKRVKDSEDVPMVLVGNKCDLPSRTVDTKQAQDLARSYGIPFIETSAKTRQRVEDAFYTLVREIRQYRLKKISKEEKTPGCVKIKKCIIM
GDP-bound HRAS wild-type protein, sequence (P01112 whole entry): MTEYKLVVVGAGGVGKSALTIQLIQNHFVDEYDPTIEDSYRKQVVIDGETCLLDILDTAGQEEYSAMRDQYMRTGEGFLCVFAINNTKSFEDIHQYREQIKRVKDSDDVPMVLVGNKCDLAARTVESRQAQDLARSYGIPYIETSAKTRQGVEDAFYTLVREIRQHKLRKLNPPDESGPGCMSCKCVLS

Structure (SMILES)	Kd [1] [nM]	HRAS/KRAS (ratio of KD value for HRAS to KD value for KRAS) [2]	NRAS/KRAS (ratio of KD value for NRAS to KD value for KRAS) [3]
CC[C@H](C)[C@@H]1NC(=O)[C@H](CC(C)C)N(C)C(=O)C[C@@H](C(=O)N2CCOCC2)N(C)C(=O)[C@H](C2CCCC2)N(C)C(=O)C2(CCCC2)NC(=O)[C@@H]2CCCN2C(=O)[C@H](CCc2ccc(C(F)(F)F)c(Cl)c2)NC(=O)CN(C)C(=O)[C@H](Cc2ccc(C)cc2)N(CC2CCC2)C(=O)[C@@H]2CCN2C(=O)[C@H](C)N(C)C1=O [PP0083] ([NMeL]I[NMeA][Aze][X42][Sar][hPhe(3-Cl-4-CF3)]P[Ac5c][NMeGly(cPent)][NMeD]-Morpholide; lactam N-11)	1.1	–	–
C=CCN1C(=O)[C@@H]2CCN2C(=O)[C@H](C)N(C)C(=O)[C@H]([C@@H](C)CC)NC(=O)[C@H](CC(C)C)N(C)C(=O)C[C@@H](C(=O)N2CCOCC2)N(C)C(=O)[C@H](C2CCCC2)N(C)C(=O)C2(CCCC2)NC(=O)[C@@H]2CCCN2C(=O)[C@H](CCc2ccc(C(F)(F)F)c(Cl)c2)NC(=O)CN(C)C(=O)[C@@H]1Cc1ccc(C)cc1 [PP0088] ([NMeL]I[NMeA][Aze][X10][Sar][hPhe(3-Cl-4-CF3)]P[Ac5c][NMeGly(cPent)][NMeD]-Morpholide; lactam N-11)	0.12	–	–
C#CCN1C(=O)[C@@H]2CCN2C(=O)[C@H](C)N(C)C(=O)[C@H]([C@@H](C)CC)NC(=O)[C@H](CC(C)C)N(C)C(=O)C[C@@H](C(=O)N2CCOCC2)N(C)C(=O)[C@H](C2CCCC2)N(C)C(=O)C2(CCCC2)NC(=O)[C@@H]2CCCN2C(=O)[C@H](CCc2ccc(C(F)(F)F)c(Cl)c2)NC(=O)CN(C)C(=O)[C@@H]1Cc1ccc(C)cc1 [PP0090] ([NMeL]I[NMeA][Aze][X53][Sar][hPhe(3-Cl-4-CF3)]P[Ac5c][NMeGly(cPent)][NMeD]-Morpholide; lactam N-11)	0.083	–	–
CC[C@H](C)[C@@H]1NC(=O)[C@H](CC(C)C)N(C)C(=O)C[C@@H](C(=O)N2CCOCC2)N(C)C(=O)[C@H](C2CCCC2)N(C)C(=O)C2(CCCC2)NC(=O)[C@@H]2CCCN2C(=O)[C@H](CCc2ccc(C(F)(F)F)c(Cl)c2)NC(=O)CN(C)C(=O)[C@H](Cc2ccc(C)cc2)N(CCC(C)C)C(=O)CN(C)C(=O)CN(C)C1=O [PP0098] ([NMeL]I[Sar][Sar][X15][Sar][hPhe(3-Cl-4-CF3)]P[Ac5c][NMeGly(cPent)][NMeD]-Morpholide; lactam N-11)	0.23	–	–
CCCN1C(=O)[C@@H]2CCN2C(=O)[C@H](C)N(C)C(=O)[C@H]([C@@H](C)CC)NC(=O)[C@H](CC(C)C)N(C)C(=O)C[C@@H](C(=O)N2CCOCC2)N(C)C(=O)[C@H](C2CCCC2)N(C)C(=O)C2(CCCC2)NC(=O)[C@@H]2CCCN2C(=O)[C@H](CCc2ccc(C(F)(F)F)c(Cl)c2)NC(=O)CN(C)C(=O)[C@@H]1Cc1ccc(OC(F)(F)F)cc1 [PP0136] ([NMeL]I[NMeA][Aze][X52][Sar][hPhe(3-Cl-4-CF3)]P[Ac5c][NMeGly(cPent)][NMeD]-Morpholide; lactam N-11)	1.3	–	–
CCCN1C(=O)CN(C)C(=O)CN(C)C(=O)[C@H]([C@@H](C)CC)NC(=O)[C@H](CC(C)C)N(C)C(=O)C[C@@H](C(=O)N2CCOCC2)N(C)C(=O)[C@H](C2CCCC2)N(C)C(=O)C2(CCCC2)NC(=O)[C@@H]2CCCN2C(=O)[C@H](CCc2ccc(C(F)(F)F)c(Cl)c2)NC(=O)CN(C)C(=O)[C@@H]1Cc1ccc(OC(F)(F)F)cc1 [PP0137] ([NMeL]I[Sar][Sar][X52][Sar][hPhe(3-Cl-4-CF3)]P[Ac5c][NMeGly(cPent)][NMeD]-Morpholide; lactam N-11)	0.47	–	–
CCCN1C(=O)CN(C)C(=O)CN(C)C(=O)[C@H]([C@@H](C)CC)NC(=O)[C@H](CC(C)C)N(C)C(=O)C[C@@H](C(=O)N2CCOCC2)N(C)C(=O)[C@H](C2CCCC2)N(C)C(=O)C2(CCCC2)NC(=O)[C@@H]2C[C@H](OCC(F)F)CN2C(=O)[C@H](CCc2ccc(C(F)(F)F)c(Cl)c2)NC(=O)CN(C)C(=O)[C@@H]1Cc1ccc(C(F)(F)F)cc1 [PP0245] ([NMeL]I[Sar][Sar][NPrPhe(4-CF3)][Sar][hPhe(3-Cl-4-CF3)][cisHyp](Ethyl(2,2-F2))[Ac5c][NMeGly(cPent)][NMeD]-Morpholide; lactam N-11)	0.37	–	–
CCCN1C(=O)CN(C)C(=O)CN(C)C(=O)[C@H](C2CCCC2)NC(=O)[C@H](CC(C)C)N(C)C(=O)C[C@@H](C(=O)N2CCOCC2)N(C)C(=O)[C@H](C2CCCC2)N(C)C(=O)C2(CCCC2)NC(=O)[C@@H]2CCCN2C(=O)[C@H](CCc2ccc(C(F)(F)F)c(Cl)c2)NC(=O)CN(C)C(=O)[C@@H]1Cc1ccc(C(F)(F)F)cc1 [PP0251] ([NMeL][Gly(cPent)][Sar][Sar][NPrPhe(4-CF3)][Sar][hPhe(3-Cl-4-CF3)]P[Ac5c][NMeGly(cPent)][NMeD]-Morpholide; lactam N-11)	0.25	–	–
CCCN1C(=O)[C@@H]2CCN2C(=O)C2(CC2)NC(=O)[C@H]([C@@H](C)CC)NC(=O)[C@H](CC(C)C)N(C)C(=O)C[C@@H](C(=O)N2CCOCC2)N(C)C(=O)[C@H](C2CCCC2)N(C)C(=O)C2(CCCC2)NC(=O)[C@@H]2CCCN2C(=O)[C@H](CCc2ccc(C(F)(F)F)c(Cl)c2)NC(=O)CN(C)C(=O)[C@@H]1Cc1ccc(C(F)(F)F)cc1 [PP0276] ([NMeL]I[Ac3c][Aze][NPrPhe(4-CF3)][Sar][hPhe(3-Cl-4-CF3)]P[Ac5c][NMeGly(cPent)][NMeD]-Morpholide; lactam N-11)	150	–	–
CCCN1C(=O)[C@@H]2CCN2C(=O)[C@@H]2[C@@H](C)CN2C(=O)[C@H]([C@@H](C)CC)NC(=O)[C@H](CC(C)C)N(C)C(=O)C[C@@H](C(=O)N2CCOCC2)N(C)C(=O)[C@H](C2CCCC2)N(C)C(=O)C2(CCCC2)NC(=O)[C@@H]2CCCN2C(=O)[C@H](CCc2ccc(C(F)(F)F)c(Cl)c2)NC(=O)CN(C)C(=O)[C@@H]1Cc1ccc(C(F)(F)F)cc1 [PP0279] ([NMeL]I[Aze(3S-Me)][Aze][NPrPhe(4-CF3)][Sar][hPhe(3-Cl-4-CF3)]P[Ac5c][NMeGly(cPent)][NMeD]-Morpholide; lactam N-11)	0.36	–	–
CCCN1C(=O)[C@@H]2CCN2C(=O)CN(C)C(=O)[C@H]([C@@H](C)CC)NC(=O)[C@H](CC(C)C)N(C)C(=O)C[C@@H](C(=O)N(C)C)NC(=O)[C@H](C2CCCC2)N(C)C(=O)C2(CCCC2)NC(=O)[C@@H]2CCCN2C(=O)[C@H](CCc2ccc(C(F)(F)F)c(Cl)c2)NC(=O)CN(C)C(=O)[C@@H]1Cc1ccc(C(F)(F)F)cc1 [PP0385] ([NMeL]I[Sar][Aze][NPrPhe(4-CF3)][Sar][hPhe(3-Cl-4-CF3)]P[Ac5c][NMeGly(cPent)]D-NMe2; lactam N-11)	0.37	–	–
CCCN1C(=O)[C@@H]2CCN2C(=O)[C@H](C)N(C)C(=O)[C@H]([C@@H](C)CC)NC(=O)[C@H](CC(C)C)N(C)C(=O)C[C@@H](C(=O)N(C)C)N(C)C(=O)[C@H](C2CCCC2)N(C)C(=O)C2(CCC2)NC(=O)[C@@H]2C[C@@H](OCC)CN2C(=O)[C@H](CCc2ccc(C(F)(F)F)c(Cl)c2)NC(=O)CN(C)C(=O)[C@@H]1Cc1ccc(C(F)(F)F)cc1 [PP0439] ([NMeL]I[NMeA][Aze][NPrPhe(4-CF3)][Sar][hPhe(3-Cl-4-CF3)][Hyp](Et)[Ac4c][NMeGly(cPent)][NMeD]-NMe2; lactam N-11)	0.021	–	–
CCC[C@H]1C(=O)N[C@@H](C2CCCC2)C(=O)N(C)CC(=O)N(C)[C@H]2C/C=C\CCN(C2=O)[C@@H](Cc2ccc(C)cc2)C(=O)N(C)CC(=O)N[C@@H](CCc2ccc(C(F)(F)F)c(OC)c2)C(=O)N2CC3(CC3)C[C@H]2C(=O)NC2(CC(C)(C)C2)C(=O)N(C)[C@@H](CC(C)(C)C)C(=O)N(C)[C@H](C(=O)N(C)C)CC(=O)N1C [PP3010]	–	B (a compound having 3 or more and less than 10 is denoted as B)	B (a compound having 3 or more and less than 10 is denoted as B)
CCC[C@H]1C(=O)N[C@@H](C2CCCCC2)C(=O)N(C)CC(=O)N(C)[C@H]2C/C=C\CCN(C2=O)[C@@H](Cc2ccc(C)cc2)C(=O)N(C)CC(=O)N[C@@H](CCc2ccc(C(F)(F)F)c(Cl)c2)C(=O)N2C[C@H](OCC)C[C@H]2C(=O)NC2(CC(C)(C)C2)C(=O)N(C)[C@@H](CC(C)C)C(=O)N(C)[C@H](C(=O)N(C)C)CC(=O)N1C [PP3021]	–	A (a compound having 10 or more and less than 20 is denoted as A)	AA (a compound having 20 or more is denoted as AA)
CCC[C@H]1C(=O)N[C@@H](C2CCOCC2)C(=O)N(C)CC(=O)N(C)[C@H]2C/C=C\CCN(C2=O)[C@@H](Cc2ccc(C)cc2)C(=O)N(C)CC(=O)N[C@@H](CCc2ccc(C(F)(F)F)c(Cl)c2)C(=O)N2C[C@H](OCC)C[C@H]2C(=O)NC2(CC(C)(C)C2)C(=O)N(C)[C@@H](CC(C)(C)C)C(=O)N(C)[C@H](C(=O)N(C)C)CC(=O)N1C [PP3026]	–	A (a compound having 10 or more and less than 20 is denoted as A)	A (a compound having 10 or more and less than 20 is denoted as A)
CCO[C@@H]1C[C@H]2C(=O)NC3(CC(C)(C)C3)C(=O)N(C)[C@@H](C3CCCC3)C(=O)N(C)[C@H](C(=O)N(C)CC)CC(=O)N(C)[C@H]3C/C=C/c4ccc(cc4)C[C@@H](C(=O)N(C)CC(=O)N[C@@H](CCc4ccc(Cl)c(Cl)c4)C(=O)N2C1)N1CC/C=C\C[C@@H](C1=O)N(C)C(=O)CN(C)C(=O)[C@H]([C@@H](C)CC)NC3=O [PP3056]	–	A (a compound having 10 or more and less than 20 is denoted as A)	A (a compound having 10 or more and less than 20 is denoted as A)
CCO[C@@H]1C[C@H]2C(=O)NC3(CC(C)(C)C3)C(=O)N(C)[C@@H](C3CCCC3)C(=O)N(C)[C@H](C(=O)N(C)C)CC(=O)N(C)[C@H]3CCCCC/C=C/c4ccc(cc4)C[C@@H](C(=O)N(C)CC(=O)N[C@@H](CCc4ccc(Cl)c(Cl)c4)C(=O)N2C1)N1CC/C=C\C[C@@H](C1=O)N(C)C(=O)CN(C)C(=O)[C@H]([C@@H](C)CC)NC3=O [PP3057]	–	B (a compound having 3 or more and less than 10 is denoted as B)	A (a compound having 10 or more and less than 20 is denoted as A)
